Test results reported in patent publication US20250059499A1, “CELL-SURFACE ENGINEERING COMPOSITIONS AND METHODS FOR THE PREVENTION OF IMMUNE REJECTION” (THE UNIVERSITY OF BRITISH COLUMBIA, priority 2021, published 2025).
LPG = linear polyglycerol, Mn 14,900 Da

How the values were obtained:
Ea.hy926 cells [1] = experiment: Lifetime of grafted polymer on the cell surface; type: cell-based; conditions: 37° C., after ligation with 0.5 mM polymer
Method: For lifetime measurements, polymers were attached to endothelial surfaces according to procedures outlined herein using 0.5 mM LPG-Q (10% BODIPY FL™) and exchanged into phenol-free DMEM (5% FBS, pen/strep) and incubated at 37° C. and 5% CO2. For each time point the supernatant was removed and saved for further analysis and the cell monolayers were trypsinized and subjected to flow cytometry (CytoFLEX™, Beckman Coulter™) in which 10,000 events were acquired and the median fluorescent intensity (MFI) in the 488 channel was recorded. The fluorescent intensity of the BODIPY-FL Dye in the supernatant was measured (λex/λem=503/520 nm using) a plate reader (Spectramax i3™, Molecular Devices™). Intensity values were normalized to the total cell number in each well as assessed by a trypan blue staining assay.

Ea.hy926 cells [2] = experiment: Enzyme-mediated glycocalyx removal from endothelial surface (loss of attached polymer); type: cell-based; conditions: 0.1 mM H2O2 and 1 nM epinephrine, 1 hour at 37° C.
Method: Ea.hy926 endothelial cells were treated with 0.5 mM LPG-SS or LPG-Q (containing 10% BODIPY FL) for 30 min at 4° C. in UW solution fortified with 3 mM GSH, 5 mM CaCl2, 0.2 U/mL gtTGase. […] Cells were washed, trypsinized and immediately subjected to flow cytometry. Controls with no enzyme treatment were used to set gates for 100% labeled cell populations.

[3] = test system: IL-2 activated PBMCs on TNF-α activated Ea.hy926 monolayers; experiment: PBMC adhesion to endothelial surfaces; type: cell-based, human; conditions: 0.5 mM LPG-Q or 0.56 mM LPG-Q-Sia3Lac
Method: Confluent Ea.hy926 monolayers seeded in a 48 well plate (30,000 cells/well) were activated with TNF-α (2000 U/mL, 3 hours). To obtain PBMCs, EDTA anticoagulated blood from healthy donors was subjected to ficoll density gradient centrifugation Histopaque™-1077 (Sigma Aldrich™). PBMCs were cultured for 24 h in RPMI-1640 containing 10% FBS (v/v), 1000 U/mL recombinant human IL-2 (Cedarlane™)^11 and 1% P/S. Prior to fluorescent labelling, cultured PBMCs were tested for absence of platelets by labelling an aliquot of cells with FITC-labelled anti-human […] (1:200 Beckman Coulter™) and analyzed by flow cytometry (CytoFLEX™, Beckman Coulter™). PBMCs containing <1% platelets were implemented for further study. The PBMC composition was also measured using a hematological analyzer (XN-550™ automated hematology analyzer, Sysmex Canada Inc.™). Following IL-2 treatment the typical composition of the PBMCs were ˜80% lymphocytes, 5% immature granulocytes, 2% basophils and 13% monocytes. […] PMBC adhesion was quantified by lysing the cells with RIPA buffer, spinning at 15,000 g to remove cell debris and measuring the fluorescent intensity of the CMFDA Dye in the lysate (λex/λem=492/517 nm using a plate reader (Spectramax3™, Molecular Devices™).

[4] = test system: Ea.hy926 cells co-cultured with HLA-A2-reactive CAR T cells; type: cell-based; conditions: effector:target 2:1, 1:2 and 1:10, 18 hours
Method: The experiment was performed similar to previously described PBMC/Ea.hy926 co-culture experiments by replacing the effector with CAR-T cells. Ea.hy926 cells were engineered with polymers in UW solution as outlined. Cryopreserved CAR T cells were thawed using standard protocol41 and were pelleted and resuspended in phenol-free DMEM (5% FBS, pen/strep) at an effector (CAR-T cell) to target (Ea.hy926) ratios of 2:1, 1:2 and 1:10 (Vf=100 μL). After 18 hours, supernatants were removed from the wells and PBMCs were removed through centrifugation (300 g×5 minutes) and measured for LDH content to probe cell lysis using an LDH cytotoxicity assay (Biovision Inc.™). CAR-T cell-mediated cytotoxicity was calculated according to Eq. 2 replacing PBMC LDH release with CAR-T cell LDH release. LDH released by Ea.hy926 following 18 hour culture period that have not undergone polymer attachment and cultured in the absence of CAR-T cell is the 100% alive control and LDH released by Ea.hy926 following treatment with RIPA buffer for 10 minutes at ambient temperature is 100% dead control.

[5] = test system: Balb/c aortic allograft in C57BL/6 recipient; experiment: Murine aortic interposition grafting, morphological analysis of allograft arteries; type: in vivo, mouse; conditions: day 2 post-transplantation
Method: Murine aortic interposition grafting was performed as described previously.^13,14 Segments of abdominal aorta from Balb/c (H2d) donor mice were excised, flushed with UW solution and then incubated in UW solution alone (containing 5 Mm CaCl2, 0.2 U/Ml gTGase and 3 mM GSH) or UW solution fortified with 0.2 U/mL gtTGase and 0.5 Mm polymer (LPG-Q, LPG-QSia3Lac) for 1 hour at 4° C. Aortic segments were then flushed with saline and interposed into the resected infra-renal aorta of C57BL/6 (H2b) recipient mice.
At day 2, 15 and 42 post-transplantation, grafted artery segments were perfusion fixed with 4% (v/v) paraformaldehyde, excised, and frozen in optimal cutting temperature medium. […] Medial thickness was quantified using ImageJ software (NIH) as described.69 Histological features of acute rejection at day 15 post-transplantation were graded in a blinded manner on a 0-12 scale because acute rejection involves more extensive features of immune reaction and injury compared to day 2 post-transplantation. […] Leukocyte infiltration, medial injury and intimal thickening were each graded on a 0-4 scale and an aggregate score calculated. For evaluation of chronic rejection, intimal thickening at day 42 was quantified by averaging the luminal narrowing in 3 cross-sections per artery that were ˜100, 150 and 200 μm past the suture sites using ImageJ™ software.

[6] = test system: TNF-α activated Ea.hy926 cells co-cultured with IL-2 activated PBMCs
Method: EA.hy 926 monolayers were activated using TNF-α and PBMCs were activated using IL-2 as described in PBMC adhesion experiments. Following activation, PBMC was collected and resuspended in DMEM (Phenol free, 5% FBS, pen/strep). PBMCs were then added to activated EA.hy 926 monolayers (modified and unmodified) to a final concentration of 0.15×10^6 cells/mL and left to incubate at 37° C. and 5% CO2 for 18 hour. After treatment, the supernatant was collected and cell debris was removed through centrifugation. LDH content was measured using LDC cytotoxicity assay (Biovision Inc.™). Cytotoxicity was calculated using the equation below;
where, LDHsample is the amount of LDH released from the sample, LDHPBMC is the amount of LDH released from PBMC samples not subjected to EA.hy 926 monolayers, LDHalive is the amount of LDH released from EA.hy 926 monolayers not subjected to PBMCs, and LDHdead is the amount of LDH released of EA.hy926 monolayers treated with RIPA buffer for 10 minutes at room temperature.

Substance: linear polyglycerol glutamine (Ac-GQQQLGGGGG-{LPG}; not fully specified; also: part of the polymer BODIPY FL-labelled in some experiments) [LPG-Q]
- half-life (t1/2) on the cell surface (Ea.hy926 cells [1]): 8 h
- polymer retained / glycocalyx specificity after enzyme-mediated glycocalyx removal (Ea.hy926 cells [2]): higher specificity for glycocalyx modification
- reduction of PBMC adhesion to endothelial cells compared to the control [3]: ~2.8 fold
- CAR-T cell induced endothelial cell cytotoxicity [4]: reduced endothelial cytotoxicity
- medial inflammation (graded 0-4) [5]: not demonstrated
- decrease of PBMC-mediated cytotoxicity compared to unmodified cells [6]: under 2 fold
- dependence of PBMC-mediated cytotoxicity suppression on polymer concentration or sialylation [6]: no continued significant increase in immunosuppression was observed beyond 0.27 mM
